system: Adult houseflies; assay: Housefly knock-down test, oil solution sprayed in cubic chamber (Test Example 1); type: in vivo, houseflies (Musca domestica); details: 0.7 ml of 0.00625% oil solution sprayed into 70 cm cubic chamber; adult houseflies (5 males and 5 females); counted up to 10 minutes after spraying
Protocol: A solution of 0.00625 part of the present compound (1) in 10 parts of dichloromethane was mixed with 89.99375 parts of deodorized kerosene to obtain a 0.00625% oil solution.
Adult houseflies (5 males and 5 females) were left in a cubic chamber (70 cm at each side). Into the chamber, 0.7 ml of 0.00625% oil solution of the present compound (1) prepared above was sprayed with a spray gun at a pressure of 8.8×10^4 Pa from a small window on the side of the chamber. Then, up to 10 minutes after spraying, the number of knocked-down insects was counted with time. From the results, a time required for knocking down 90% of the tested insects (KT90) was calculated.
In addition, the same test was carried out that 4-propargyl-2,3,5,6-tetrafluorobenzyl (1R)-trans-3-(2-methyl-1-propenyl)-2,2-dimethylcyclopropanecarboxylate represented by the formula: […]
(hereinafter, referred to as the comparative compound (A)), which is the compound described in JP-A 61-207361, was used as a comparative compound (repeated twice).

SMILES | KT90 (time required for knocking down 90% of the tested insects)
C#CCc1c(F)c(F)c(COC(=O)C2C(/C=C(\C#N)C(=O)OCC)C2(C)C)c(F)c1F (stereo not shown) | 2.0 min
C#CCc1c(F)c(F)c(COC(=O)C2C(/C=C(\C#N)C(=O)OC)C2(C)C)c(F)c1F (stereo not shown) | 2.6 min
C#CCc1c(F)c(F)c(COC(=O)C2C(/C=C(\C#N)C(=O)OC(C)C)C2(C)C)c(F)c1F (stereo not shown) | 5.1 min
C#CCc1c(F)c(F)c(COC(=O)[C@@H]2[C@@H](C=C(C)C)C2(C)C)c(F)c1F [Comparative compound (A), 4-propargyl-2,3,5,6-tetrafluorobenzyl (1R)-trans-3-(2-methyl-1-propenyl)-2,2-dimethylcyclopropanecarboxylate, reference compound] | >10 min
